Data taken from publication PMC6916368, “Cell‐Based Optimization of Covalent Reversible Ketoamide Inhibitors Bridging the Unprimed to the Primed Site of the Proteasome β5 Subunit” (Chemmedchem, 2019).
Numbered stars: 1 amine (or outer) side, 2 acyl side, 3 side chain; on linkers, the order of the positions; unused ones are H or OH. Peptide text beside a SMILES is read from it. * marks the point of attachment. AMC = Cc1cc(=O)oc2cc(N*)ccc12; Suc = O=C(CCC(=O)[*:2])[*:1]; Cbz = O=C(OCc1ccccc1)*; OtBu = CC(C)(C)O*

Experiments:
MV4‐11 cells = test: Cell viability endpoint assay (Celltiter Blue, 72 h); format: cell-based; details: Homo sapiens, MV4-11, mean±SD from two independent experiments
How it was run: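 Proteasome inhibitors were tested at 1 nM to 10 μM final on 50.000 cells/well in RPMI-1640 with 0.1 % FBS, plated overnight beforehand, at 37 °C and 5 % CO2. Reagent was incubated 120 minutes before the fluorescence read. IC50 came from a sigmoidal fit of technical triplicates, as the mean of two independent experiments.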

[1] = molecular target: T1, β2c subunit of isolated human 20S proteasome (Homo sapiens, UniProt Q99436); test: Proteasome inhibition assay (20 S Proteasome Assay Kit, Bz‐VGR‐AMC); format: biochemical; details: c = 1 µM, n=1; read-out: Inhibition cCP β2
T1 construct: purchased Enzo Life Sciences
How it was run: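 Isolated 20S proteasome (200 ng/well) was preincubated 30 min with inhibitor, then Bz-VGR-AMC (100 μM final) was added for 60 min and fluorescence read. Single-point residual activity was taken at 100 nM or 1 μM; IC50 was fitted from duplicates, mean of three independent experiments.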

[2] = molecular target: T2, β1c subunit of isolated human 20S proteasome (Homo sapiens, UniProt P28072); test: Proteasome inhibition assay (20 S Proteasome Assay Kit, Z‐LLE‐AMC); format: biochemical; details: c = 1 µM, n=1; read-out: Inhibition cCP β1
T2 construct: purchased Enzo Life Sciences
How it was run: (§1)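 Isolated human 20S proteasome (200 ng/well) preincubated 30 min with inhibitor, then 100 μM final Suc-LLVY-AMC (β5c, β5i) or Z-LLE-AMC (β1c) added for 60 min; fluorescence read. Residual activity at 100 nM final (n=3; β5c, β5i) or 1 μM (n=1, incl. β1c). IC50s: technical duplicates, mean of three experiments.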

Danio rerio embryos [3] = test: Danio rerio escape response (neurotoxicity) assay, dechorionated embryos; format: in vivo; details: for C-Bend Amplitude, Difference between means / C-Bend duration, Difference between means / Number of movements per 100 ms, Difference between means / Number of total movements, Difference between means: versus control
Method: Danio rerio escape response assay. 24 hours past fertilization embryos were dechorionated and transferred into 96‐well plates containing 198 μL of E3 media at 26 °C. […] Incubation times were 24 h, 48 h and 72 h. Survival of the embryos was determined by visual analysis of heart‐beat. For recording the touch evoked escape response, embryos were transferred to a microscopy slide with cavity that is placed on a SL‐300 LED Soft Light (Dörr, Neu‐Ulm, Germany) under a MotionBlitz EoSens mini1‐1 MC1370 high speed camera (Mikrotron, Unterschleißheim, Germany, Figure S18). An escape response was triggered by a touch stimulus at the trunk of embryos using a small sewing needle, which is slightly blunted. For each embryo, a maximum of 50 stimuli was applied. […] No escape response was determined if only one embryo was alive at 96 hpf. Movement was recorded at 96 hpf at 500 frames per second for 3 seconds using the MotionBlitzDirector 2 software. Determination of the amplitude α defined by the body angle spanned between the head, yolk and tail using a MATLAB‐based software tool and plotted using GraphPad Prism 7.02.

Danio rerio embryos [4] = test: Danio rerio embryo toxicity assay (not dechorionated); format: in vivo
Method: Danio rerio embryo toxicity assay. Fish keeping protocols are approved by the Darmstadt administrative authority and documented. All fish were treated humanely. […] Embryos were decollated into separate wells containing a total volume of 200 μL and the inhibitor at the given concentration.

[5] = molecular target: T3, β5c subunit of isolated human 20S proteasome (Homo sapiens, UniProt P28074); test: Proteasome inhibition assay (20 S Proteasome Assay Kit, Suc‐LLVY‐AMC); format: biochemical
T3 construct: purchased Enzo Life Sciences
How it was run: as §1

[6] = molecular target: T4, β5i subunit of isolated human 20S proteasome (Homo sapiens, UniProt P28062); test: as above; format: biochemical
T4 construct: purchased Enzo Life Sciences
How it was run: as §1

[7] = tested on: proteasome in MV4‐11 cells; test: Cellular conversion of fluorogenic proteasome substrates (assay validation); format: cell-based
Method: First, we benchmarked the fluorogenic substrate 30 towards the standard substrate 31 (Suc‐LLVY‐AMC) using varying substrate concentrations and cell numbers of MV4‐11 cells (Figure 5b). The highest substrate conversion was detected using 100 μM 30 in 50.000 cells (135 rfu/min) in MV4‐11 cells and was converted ∼4 times faster than 31 (33.3 rfu/min). There was an increase of differences in conversion rates with smaller number of cells (10.000 cells, 100 μM substrate: 10‐fold conversion) and lower substrate concentration (50.000 cells, 25 μM substrate: 15‐fold conversion).
In‐cell determination of proteasome IC 50. […] Inhibitors were serially diluted in RPMI‐1640 medium as 10‐fold stocks, added to cells giving final concentrations and incubated for 0 h–13 h at 37 °C and 5 % CO2 (Figure S5–S8). Substrate was added to give a final concentration of 30 μM and substrate conversion was detected by fluorescence measurement over 100 min (assay validation) or 60 min (inhibition assays) using a Tecan M1000 microplate reader. Rate of fluorescence change over time was calculated, rates for negative (no‐cell) control was subtracted and normalized to positive control (no inhibitor). Dose‐response curves were fitted to the equation “Y=100/(1+10^((L°^gIC50−X)*HillSl°^pe))” using GraphPad Prism 7.02 (SI chapter 2b, Figure S2–S4).

[8] = 25 μM, 24 h, listed as bortezomib
[9] = 25 μM, 48 h, listed as bortezomib
[10] = 50 μM, 24 h, listed as bortezomib
[11] = 100 μM substrate, 50.000 MV4‐11 cells

CC(C)C[C@H](NC(=O)[C@H](Cc1ccccc1)NC(=O)c1cnccn1)B(O)O [Bortezomib 1, Bortezomib, reference compound]
IC50 (MV4‐11 cells): 34 ± 5 nM | inhibition at 1 µM [1]: 5% | inhibition at 1 µM [2]: 80% | Reflex Duration (Danio rerio embryos [3]; 25 µM, 24 h): 540,2 ± 136,6 ms | mean reflexes per stimuli (Danio rerio embryos [3]; 25 µM, 24 h): 8% | C-Bend Amplitude (Danio rerio embryos [3]; 25 μM, 24 h, listed as 1): 131,6 ± 21,3 ° | C-Bend Duration (Danio rerio embryos [3]; 25 μM, 24 h, listed as 1): 32,67 ± 6,489 ms | Number of movements (Danio rerio embryos [3]; 25 μM, 24 h, listed as 1): 11,56 ± 3,33 | Number of movements per 100 ms (Danio rerio embryos [3]; 25 μM, 24 h, listed as 1): 1,916 ± 0,3504 | C-Bend Amplitude (Danio rerio embryos [3]; [8]): 131.6±21.3 ° | C-Bend Duration (Danio rerio embryos [3]; [8]): 32.7 ± 6.5 ms | Number of movements per 100 ms (Danio rerio embryos [3]; [8]): 1.92±0.35 | C-Bend Amplitude, Difference between means (Danio rerio embryos [3]; 25 µM, 24 h): 2,556 ± 25,09 | C-Bend duration, Difference between means (Danio rerio embryos [3]; 25 µM, 24 h): 13 ± 6,633 | Number of movements per 100 ms, Difference between means (Danio rerio embryos [3]; 25 µM, 24 h): -1,559 ± 0,4739 | Reflex Duration (Danio rerio embryos [3]; 25 µM, 48 h): 289,3 ± 198,9 ms | mean reflexes per stimuli (Danio rerio embryos [3]; 25 µM, 48 h): 2% | C-Bend Amplitude (Danio rerio embryos [3]; 25 μM, 48 h, listed as 1): 6,889 ± 5,549 ° | C-Bend Duration (Danio rerio embryos [3]; 25 μM, 48 h, listed as 1): 8,222 ± 6,654 ms | Number of movements (Danio rerio embryos [3]; 25 μM, 48 h, listed as 1): 3,222 ± 2,259 | Number of movements per 100 ms (Danio rerio embryos [3]; 25 μM, 48 h, listed as 1): 0,2435 ± 0,1615 | C-Bend Amplitude (Danio rerio embryos [3]; [9]): 6.9±5.6 ° | Number of movements per 100 ms (Danio rerio embryos [3]; [9]): 0.24±0.32 | C-Bend Amplitude, Difference between means (Danio rerio embryos [3]; 25 µM, 48 h): -122,1 ± 14,37 | Number of movements per 100 ms, Difference between means (Danio rerio embryos [3]; 25 µM, 48 h): -3,231 ± 0,3577 | Number of total movements, Difference between means (Danio rerio embryos [3]; 25 µM, 48 h): -10,89 ± 3,622 | Number of movements per 100 ms (Danio rerio embryos [3]; 50 μM, 24 h): 0±0 | Reflex Duration (Danio rerio embryos [3]; 50 μM, 24 h): 0 ± 0 ms | responses to touch stimuli (Danio rerio embryos [3]; 50 μM, 24 h, 50 stimuli per embryo, 150 stimuli total): 0 | C-Bend Amplitude (Danio rerio embryos [3]; 50 μM, 24 h, listed as 1): 0 ± 0 ° | C-Bend Duration (Danio rerio embryos [3]; 50 μM, 24 h, listed as 1): 0 ± 0 ms | Number of movements (Danio rerio embryos [3]; 50 μM, 24 h, listed as 1): 0 ± 0 | C-Bend Amplitude (Danio rerio embryos [3]; [10]): 0±0 ° | C-Bend Duration (Danio rerio embryos [3]; [10]): 0 ± 0 ms | Number of movements (Danio rerio embryos [3]; [10]): 0 | C-Bend Amplitude, Difference between means (Danio rerio embryos [3]; 50 µM, 24 h): -129 ± 13,26 | C-Bend duration, Difference between means (Danio rerio embryos [3]; 50 µM, 24 h): -19,67 ± 1,374 | Number of movements per 100 ms, Difference between means (Danio rerio embryos [3]; 50 µM, 24 h): -3,475 ± 0,3192 | Number of total movements, Difference between means (Danio rerio embryos [3]; 50 µM, 24 h): -14,11 ± 2,831 | overall survival at low doses (Danio rerio embryos [3]; dechorionated embryos): 92% | Survived (embryos of 4) (Danio rerio embryos [3]; dechorionated, 25 µM, 24 h): 4 | Survived (embryos of 4) (Danio rerio embryos [3]; dechorionated, 25 µM, 48 h): 3 | Survived (embryos of 4) (Danio rerio embryos [3]; dechorionated, 50 µM, 24 h): 4 | treated embryos dead (Danio rerio embryos [3]; dechorionated, 50 μM 48 h to 72 h and 25 μM 72 h): 100% | Survival of embryos (not dechorionated) (Danio rerio embryos [4]; 1 µM, 24 h): 100% | Survival of embryos (not dechorionated) (Danio rerio embryos [4]; 1 µM, 48 h): 100% | Survival of embryos (not dechorionated) (Danio rerio embryos [4]; 1 µM, 72 h): 100% | Survival of embryos (not dechorionated) (Danio rerio embryos [4]; 1 µM, 96 h): 100% | Survival of embryos (not dechorionated) (Danio rerio embryos [4]; 5 µM, 24 h): 100% | Survival of embryos (not dechorionated) (Danio rerio embryos [4]; 5 µM, 48 h): 100% | Survival of embryos (not dechorionated) (Danio rerio embryos [4]; 5 µM, 72 h): 100% | Survival of embryos (not dechorionated) (Danio rerio embryos [4]; 5 µM, 96 h): 80% | Survival of embryos (not dechorionated) (Danio rerio embryos [4]; 10 µM, 24 h): 100% | Survival of embryos (not dechorionated) (Danio rerio embryos [4]; 10 µM, 48 h): 100% | Survival of embryos (not dechorionated) (Danio rerio embryos [4]; 10 µM, 72 h): 100% | Survival of embryos (not dechorionated) (Danio rerio embryos [4]; 10 µM, 96 h): 100% | Survival of embryos (not dechorionated) (Danio rerio embryos [4]; 25 µM, 24 h): 100% | Survival of embryos (not dechorionated) (Danio rerio embryos [4]; 25 µM, 48 h): 100% | Survival of embryos (not dechorionated) (Danio rerio embryos [4]; 25 µM, 72 h): 100% | Survival of embryos (not dechorionated) (Danio rerio embryos [4]; 25 µM, 96 h): 80% | inhibition at 1 µM ([5]; c = 1 µM, n=1, read-out: Inhibition cCP β5): 98% | inhibition at 0.1 µM ([5]; c=100 nM, read-out: Rel. Inhibition β5c): 89% | inhibition at 1 µM ([6]; c = 1 µM, n=1, read-out: Inhibition iCP β5): 98% | inhibition at 0.1 µM ([6]; c=100 nM, read-out: Rel. Inhibition β5i): 85%

Cc1cc(=O)oc2cc(NC(=O)[C@H](C)NC(=O)[C@H](CC(=O)OC(C)(C)C)NC(=O)[C@H](CC(C)C)NC(=O)OCc3ccccc3)ccc12 [Compound 30, Z‐LD(OtBu)A‐AMC] (Cbz-Leu-Asp(OtBu)-Ala-{AMC})
conversion of 30 relative to 31 [7, 11]: ~4 times | substrate conversion [7, 11]: 135 rfu/min | conversion of 30 relative to 31 ([7]; 10.000 cells, 100 μM substrate): 10 fold | conversion of 30 relative to 31 ([7]; 50.000 cells, 25 μM substrate): 15 fold

Cc1cc(=O)oc2cc(NC(=O)[C@H](Cc3ccc(O)cc3)NC(=O)[C@@H](NC(=O)[C@H](CC(C)C)NC(=O)[C@H](CC(C)C)NC(=O)CCC(=O)O)C(C)C)ccc12 [Compound 31, Suc‐LLVY‐AMC] (Suc-LLVY-{AMC})
substrate conversion [7, 11]: 33.3 rfu/min
